ChEMBL document CHEMBL1201862, “PubChem BioAssay data set” (2004)
Activity calls are given as the source filed them.

Assays:
[1] = fluconazole-exposed Candida albicans growth modulators – fluorescence, retest, confirmation (AID 2467); assay type: functional, cell-based
[2] = NIH-3T3 fibroblast cytotoxicity, dose response, cytotoxicity control, cell-based, fluorescence, Alamar Blue, secondary assay (AID 2327); assay type: functional;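 note: NIH-3T3 mouse fibroblasts cultured with fluconazole at 8 µg/mL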
Leucine aminopeptidase = molecular target: T1, Leucine aminopeptidase (Plasmodium falciparum 3D7, UniProt Q8IL11); assay: P. falciparum M17LAP inhibitors, primary screen, biochemical, fluorogenic H-Leu-NHMec substrate, 1536-well (AID 1619); assay type: functional
T1 sequence (Q8IL11 whole entry): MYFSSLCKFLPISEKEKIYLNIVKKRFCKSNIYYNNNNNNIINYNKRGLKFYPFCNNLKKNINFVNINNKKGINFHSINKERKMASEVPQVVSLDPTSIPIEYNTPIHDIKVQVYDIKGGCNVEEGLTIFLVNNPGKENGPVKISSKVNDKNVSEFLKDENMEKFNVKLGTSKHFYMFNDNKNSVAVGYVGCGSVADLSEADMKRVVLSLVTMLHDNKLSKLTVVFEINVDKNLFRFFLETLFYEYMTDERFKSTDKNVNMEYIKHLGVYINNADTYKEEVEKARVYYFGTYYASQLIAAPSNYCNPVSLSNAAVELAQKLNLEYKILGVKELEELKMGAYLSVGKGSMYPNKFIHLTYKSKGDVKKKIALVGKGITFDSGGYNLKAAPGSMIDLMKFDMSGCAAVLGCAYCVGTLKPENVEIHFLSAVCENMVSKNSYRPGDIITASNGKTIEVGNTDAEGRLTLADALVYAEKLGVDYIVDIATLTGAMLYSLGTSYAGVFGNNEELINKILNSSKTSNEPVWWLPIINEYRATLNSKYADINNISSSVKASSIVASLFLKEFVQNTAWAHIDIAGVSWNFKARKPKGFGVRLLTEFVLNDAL

cells [3] = assay type: functional, cell-based
cells [4] = assay type: functional, cell-based; remark: listed apart in the source
[5] = molecular target: T2, Replicative DNA helicase DnaB (Mycobacterium tuberculosis, UniProt P9WMR3); assay: DnaB intein splicing inhibitors, dose response, biochemical, cell-free fluorescence (AID 449749); assay type: functional
T2 sequence (P9WMR3 whole entry): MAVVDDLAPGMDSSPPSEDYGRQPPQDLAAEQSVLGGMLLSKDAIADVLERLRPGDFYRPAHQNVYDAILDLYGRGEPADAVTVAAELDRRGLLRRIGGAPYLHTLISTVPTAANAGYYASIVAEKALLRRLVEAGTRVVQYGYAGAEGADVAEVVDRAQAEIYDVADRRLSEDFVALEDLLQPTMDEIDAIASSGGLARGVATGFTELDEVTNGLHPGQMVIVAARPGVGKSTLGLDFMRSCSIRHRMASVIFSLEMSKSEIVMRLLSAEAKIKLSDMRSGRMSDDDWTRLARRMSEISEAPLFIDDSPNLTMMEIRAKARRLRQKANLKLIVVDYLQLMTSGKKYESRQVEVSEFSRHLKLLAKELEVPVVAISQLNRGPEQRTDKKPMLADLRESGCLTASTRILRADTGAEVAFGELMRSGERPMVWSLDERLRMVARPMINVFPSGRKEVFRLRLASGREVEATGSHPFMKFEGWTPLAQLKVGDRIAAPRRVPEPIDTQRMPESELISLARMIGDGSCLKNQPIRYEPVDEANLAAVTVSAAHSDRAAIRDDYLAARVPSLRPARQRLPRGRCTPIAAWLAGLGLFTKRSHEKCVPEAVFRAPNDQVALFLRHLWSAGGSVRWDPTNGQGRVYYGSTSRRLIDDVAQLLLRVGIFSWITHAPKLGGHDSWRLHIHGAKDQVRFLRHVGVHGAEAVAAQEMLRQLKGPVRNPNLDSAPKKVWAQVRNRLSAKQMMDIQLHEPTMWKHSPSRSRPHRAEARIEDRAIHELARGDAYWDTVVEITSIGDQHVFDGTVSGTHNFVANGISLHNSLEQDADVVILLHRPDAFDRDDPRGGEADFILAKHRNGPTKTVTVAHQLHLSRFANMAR

Protein RecA = molecular target: T3, Protein RecA (Mycobacterium tuberculosis, UniProt P9WHJ3); assay: Fluorescence Cell-Free Homogeneous Dose Retest to Identify Inhibitors of RecA-Intein Splicing Activity. [Related pubchem assays (depositor defined):AID2097, AID2223, AID489010, AID492950]; assay type: functional
T3 sequence (P9WHJ3 whole entry): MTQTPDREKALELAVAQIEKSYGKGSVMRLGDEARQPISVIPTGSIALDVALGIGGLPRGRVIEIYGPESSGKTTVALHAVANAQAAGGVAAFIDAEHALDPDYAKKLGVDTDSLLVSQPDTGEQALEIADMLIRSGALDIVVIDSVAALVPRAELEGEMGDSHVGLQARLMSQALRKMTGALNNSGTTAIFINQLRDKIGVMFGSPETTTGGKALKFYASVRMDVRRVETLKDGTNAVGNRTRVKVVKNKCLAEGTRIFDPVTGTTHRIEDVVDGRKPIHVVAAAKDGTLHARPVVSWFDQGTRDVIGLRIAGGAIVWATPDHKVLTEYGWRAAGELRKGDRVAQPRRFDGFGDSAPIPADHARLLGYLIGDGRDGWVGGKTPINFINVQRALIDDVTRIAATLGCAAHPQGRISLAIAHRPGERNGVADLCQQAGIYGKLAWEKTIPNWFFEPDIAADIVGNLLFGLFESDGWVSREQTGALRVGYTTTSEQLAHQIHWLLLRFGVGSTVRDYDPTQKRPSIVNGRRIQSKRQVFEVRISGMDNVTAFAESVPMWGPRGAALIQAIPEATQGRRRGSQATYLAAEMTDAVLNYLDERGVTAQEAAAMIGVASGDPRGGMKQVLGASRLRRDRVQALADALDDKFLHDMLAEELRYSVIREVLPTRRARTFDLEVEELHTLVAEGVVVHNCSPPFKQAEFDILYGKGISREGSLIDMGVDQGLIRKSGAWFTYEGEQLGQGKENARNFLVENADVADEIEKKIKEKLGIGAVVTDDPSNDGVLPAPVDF

[6] = molecular target: T4, Calpain-2 catalytic subunit (Sus scrofa, UniProt P43367); assay: m-calpain protease blockers, concentration series – biochemical, fluorogenic peptide substrate, dose response (AID 1420); assay type: functional
T4 sequence (P43367 whole entry): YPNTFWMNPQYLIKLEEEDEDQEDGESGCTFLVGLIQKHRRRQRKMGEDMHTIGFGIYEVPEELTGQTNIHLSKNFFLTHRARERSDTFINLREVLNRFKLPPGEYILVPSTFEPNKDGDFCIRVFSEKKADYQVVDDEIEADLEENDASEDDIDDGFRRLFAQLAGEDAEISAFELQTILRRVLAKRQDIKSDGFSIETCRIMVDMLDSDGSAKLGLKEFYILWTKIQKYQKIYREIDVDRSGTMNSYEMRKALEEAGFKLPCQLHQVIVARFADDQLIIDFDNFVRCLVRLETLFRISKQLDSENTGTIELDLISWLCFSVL

[7] = molecular target: T5, Rac GTPase-activating protein 1 (Homo sapiens, UniProt Q9H0H5); assay: blockers of MgcRacGAP-driven Rac1 GTP hydrolysis – biochemical, ADP Hunter fluorescence, primary and confirmatory, confirmation (AID 624330); assay type: functional
T5 sequence (Q9H0H5 whole entry): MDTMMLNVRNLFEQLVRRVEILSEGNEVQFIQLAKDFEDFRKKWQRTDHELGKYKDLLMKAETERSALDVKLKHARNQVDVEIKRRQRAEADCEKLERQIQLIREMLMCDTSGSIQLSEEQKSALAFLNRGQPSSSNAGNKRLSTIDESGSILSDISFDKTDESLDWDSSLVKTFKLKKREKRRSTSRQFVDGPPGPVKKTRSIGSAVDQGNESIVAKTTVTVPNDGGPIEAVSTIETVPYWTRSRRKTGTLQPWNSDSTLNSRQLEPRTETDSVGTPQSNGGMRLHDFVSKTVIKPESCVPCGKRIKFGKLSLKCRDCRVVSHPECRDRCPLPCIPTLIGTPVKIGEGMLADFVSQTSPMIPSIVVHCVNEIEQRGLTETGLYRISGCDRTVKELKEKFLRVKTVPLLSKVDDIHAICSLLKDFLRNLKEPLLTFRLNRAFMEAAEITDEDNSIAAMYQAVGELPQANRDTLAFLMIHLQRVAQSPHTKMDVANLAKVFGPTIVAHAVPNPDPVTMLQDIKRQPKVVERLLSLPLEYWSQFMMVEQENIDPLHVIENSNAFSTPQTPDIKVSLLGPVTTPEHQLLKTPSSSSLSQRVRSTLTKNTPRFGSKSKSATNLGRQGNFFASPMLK

INS1 = assay: INS-1E survival protection against cytokine death – cell-based, luminescence, retest, dose response (AID 449756); assay type: functional; details: Rattus norvegicus;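 note: cell death triggered by IL-1 beta plus TNF-alpha plus IFN-gamma mixture; protective hits raise ATP signal compared with cytokine alone wells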

OCCN1CCN(C(S)=NC2CCCC2)CC1
EC50 [1]: 5.25 µM (active) | EC50 [2]: 50.8 µM (active)

Cc1cc(NS(=O)(=O)c2ccc(NC(=O)CN3C(=O)c4ccccc4C3=O)cc2)nc(C)n1
IC50 (Leucine aminopeptidase): 64.4 µM (active)

CCCC1C(c2ccco2)NC(c2ccco2)CC1(C)O (configuration not stated)
EC50 [1]: 8.34 µM (active) | EC50 [2]: > 150 µM (inactive)

O=C1c2ccccc2NC(c2c[nH]nc2-c2ccc(Cl)cc2)N1O (configuration not stated)
EC50 [1]: > 38 µM (not active) | EC50 [2]: > 160 µM (inactive)

CCOC(=O)c1c(C)[nH]c(C(=O)OCc2ccccc2F)c1C
EC50 (cells [3]): 93.5 µM (active) | EC50 (cells [4]): > 350 µM (not active)

Cn1ncc(Br)c1C(=O)OCC(=O)Nc1nc(-c2ccccc2)cs1
EC50 (cells [3]): 36.4 µM (active) | EC50 (cells [4]): > 350 µM (not active)

C/C(=C\c1ccco1)C1C(C#N)=C(N)Oc2[nH]nc(-c3ccccc3)c21 (configuration not stated)
AC50 [5]: 6.38 µM (active) | EC50 (Protein RecA): 3.12 µM (active) | IC50 (Leucine aminopeptidase): 83.7 µM (active)

Cc1ccc(C2(C)NC(=O)N(CC(=O)NC(=O)NC(C)(C)C)C2=O)cc1 (configuration not stated)
EC50 (cells [3]): > 350 µM (not active) | EC50 (cells [4]): > 350 µM (not active)

COc1cccc(CNc2nn[nH]n2)c1OC
IC50 (Leucine aminopeptidase): 67.2 µM (active)

CCN(CC)CCNCc1nc2ccccc2c(=O)n1-c1ccc(F)cc1
EC50 (cells [3]): > 350 µM (not active) | EC50 (cells [4]): > 350 µM (not active)

Cn1cccc1C(=O)NC(=O)COC(=O)c1cc(S(=O)(=O)N2CCCCC2)ccc1Cl
EC50 (cells [3]): > 350 µM (not active) | EC50 (cells [4]): > 350 µM (not active)

N#C[C-](C#N)c1nc2ccccc2nc1-[n+]1cccc(NC(=O)c2ccc(F)cc2)c1
EC50 (cells [3]): > 350 µM (not active) | EC50 (cells [4]): > 350 µM (not active)

CC(=O)Nc1ccc(NC(=O)CCCN2C(=O)c3ccccc3C2=O)cc1
EC50 [2]: > 150 µM (inactive)

O=C(C[n+]1ccn(CCCNP2(=O)C=C(c3ccccc3)OC(c3ccccc3)=C2)c1)c1cccs1
EC50 (cells [3]): > 350 µM (not active) | EC50 (cells [4]): > 350 µM (not active)

Cc1ccc(CNC(=O)CCCCCNc2nc(S)nc3ccccc23)cc1
IC50 [6]: 24.8 µM (not active)

CC1CCCCN1C(=O)CSc1nc(O)cc(-c2ccccc2)n1 (configuration not stated)
IC50 (Leucine aminopeptidase): 63.5 µM (active)

CCCOC(=O)Nc1cc(OC)ccc1[N+](=O)[O-]
IC50 [6]: 8.71 µM (not active)

CCOc1ccc(C2C(C(=O)Nc3ccccc3)=C(C)N=c3s/c(=C/c4cccc(OCC(=O)O)c4)c(=O)n32)cc1 (configuration not stated)
IC50 (Leucine aminopeptidase): 5.95 µM (active)

O=[N+]([O-])c1ccc(/C(=N\c2cccc3ccccc23)N2CCOCC2)cc1
EC50 [1]: > 38 µM (not active) | EC50 [2]: > 150 µM (inactive)

O=C1c2ccccc2C(=O)N1/N=C/c1ccc(O)c(O)c1
IC50 [7]: 44.5 µM (active) | IC50 (Leucine aminopeptidase): 30.4 µM (active)

Cc1cccc(/C=N/NC(=O)c2c(-c3ccccc3)noc2C)c1O
AC50 (INS1): 1.5 µM (active) | EC50 (cells [3]): > 350 µM (not active) | EC50 (cells [4]): 23 µM (active)
